Reference: paper PMC5859250, “Contribution of transformation products towards the total herbicide toxicity to tropical marine organisms” (Scientific Reports, 2018)
≈ marks a conversion by molar mass, not a printed value.

Assays:
[1] = Herbicide degradation in outdoor tanks with coastal seawater and sediment (330 d); format: physicochemical; settings: for Transformation product concentration: in tank of the parent herbicide, measured or estimated
Source text: Photosystem II herbicides/transformation product solutions were produced by adding herbicides to seawater within separate 120 l outdoor fibreglass tanks, in the presence of natural coastal sediments (further details can be found in Mercurio 2016)[36]. […] The tanks used were previously described in Mercurio et al.[8], with treatment water being partially shaded (70%) and exposed to a maximum of 700 µmol photons m^−2s^−1 over the course of the experiment. The application of a natural diurnal light regime and coastal sediment were previously shown to increase the rates of PSII herbicide degradation and represent more natural conditions than those used in standard degradation tests[8],[36]. Evaporation was minimised with loose-fitting clear acrylic lids and the water continuously circulated using Turbelle Nanostream pumps. Prior to every sampling period evaporation losses were replenished with equal volumes of MilliQ water. The average temperature was 25.7 °C with a range of 15.6–36.6 °C over the course of the study. Unfiltered coastal seawater and sediments were collected from the intertidal zone adjacent to the Australian Institute of Marine Science (19°16′S, 147°03′E), Cape Cleveland, QLD. The sediments were prepared one week prior to use by sieving (>2 mm removed) and thorough mixing. Each tank contained 5 kg of sediment. Physical and chemical information on the seawater and sediments used the treatments can be found in SOM Table 1.
The 20 tanks included replicates for control seawater (n = 4) and the PSII herbicides diuron (n = 4), atrazine (n = 3), simazine (n = 3), hexazinone (n = 3), and ametryn (n = 3). Herbicide treatments and replicates were randomized among tanks. The herbicides were purchased from Sigma Aldrich (>95% purity) and were introduced at ~1 mg l^−1 to enable direct chemical and toxicological testing of the herbicide transformation product mixtures without additional concentration steps. […] The same concentration was used in the controls. Sample collection, internal standard addition, and analytical techniques (HPLC-MS/MS using an AB/Sciex API5500Q mass spectrometer equipped with an electrospray interface and coupled to a Shimadzu Prominence HPLC system) were as previously reported[7],[36]. […] Individual replicates were analysed using HPLC/TripleTOF mass spectrometry for possible transformation products as described in Mercurio 2016[36]. Briefly, 0.2 µm-filtered samples were directly injected into an ABSciex API5600+ Triple TOF mass spectrometer (ABSciex, Concord, Ontario, Canada) equipped with an electrospray (TurboV) interface coupled to a Shimadzu Nexera HPLC system (Shimadzu Corp., Kyoto, Japan). Separation was achieved using a 4 micron 50 × 2.0 mm Phenomenex Synergi Fusion RP column (Phenomenex, Torrance, CA) run at 45 °C, and a flow rate of 0.4 mL min^−1 with a linear gradient starting at 8% B for 0.5 minutes, ramped to 100% B in 8 minutes then held at 100% for 2.0 minutes followed by equilibration at 8% B for 2.5 minutes (A = 1% methanol in HPLC grade water, B = 95% methanol in HPLC grade water, both containing 0.1% acetic acid). The mass spectrometer was operated in positive ion SWATH mode. Briefly this mode comprises a TOF scan of 50 millisecond duration followed by small segments of the mass range being transmitted through the quadrupole, fragmented in the collision cell and full TOF mass spectra taken of the transformation products. Data from these experiments was examined using the Masterview software (ABSciex).
Potential transformation products identified using TOF mass spectrometry and other potential transformation products identified from literature were then re-examined by HPLC/ triple quadrupole mass spectrometry using multiple reaction monitoring. Product ions used were as identified from QTOF data or from literature references and parameters such as collision energy optimised by repeated injections of samples for compounds detected. […]

Symbiodinium sp. = test: Microalgal PAM fluorometry assay, inhibition of ∆F/Fm′ (24 h, 96-well plate); format: cell-based; settings: 24 h; for IC20: read-out: IC20 parent (inhibition of ∆F/Fm′ by 20%); for IC50: read-out: IC50 parent (inhibition of ∆F/Fm′ by 50%); for IC10 parent (inhibition of ∆F/Fm′ by 10%): Symbiodinium sp., pure compound
Source text: (§1) Microalgae play a critical role in the marine food web and have been used in a number of sensitive assays for the assessment of toxicity of both herbicides and their transformation products[13],[16],[60]. High throughput 96 well plate designs allow for increased replication and a wide range of concentrations especially when paired with pulse amplitude modulation (PAM) fluorometry[50],[61]. PAM fluorometry measures chlorophyll fluorescence and can be used to calculate inhibitions of effective quantum yield ∆F/Fm′, which is proportional to reduced photosynthetic efficiency[62] and growth in microalgae[63] and can be plotted against toxicant concentrations to derive concentrations that inhibit ∆F/Fm′ by 10, 20 and 50% (IC10, IC20 and IC50). In the present study the green algae (Dunaliella sp.) and coral symbiont (Symbiodinium sp.) were exposed to herbicides and aged herbicide solutions for 24 h in a 96-well plate format. A Maxi-Imaging-PAM (I-PAM) (Walz, GmbH Germany) was used to measure inhibition of ∆F/Fm′ using settings provided previously[36] and below.
(§2) Symbiodinium cells were isolated from coral by air blasting branches of Acropora tenuis colonies collected (collected under the permit G10-33440.1) at 2–5 m depth in Nelly Bay, Magnetic Island, GBR[36]. Symbiodinium cells were inoculated into sterile IMK growing media, the culture purified, DNA extracted, and Clade C1 identified as published previously[64],[65]. Cultures were maintained at 26 °C, 60 µE PAR, 14:10 light:dark photoperiod inside environmental chambers (Steridium e500). The Dunaliella sp. (CS-353) (Chlorophyceae) was obtained from the CSIRO Collection of Living Microalgae (CCLM). The algae was subcultured and grown in F2 media. For the toxicology assays, an exponentially growing culture was employed[63] and density adjusted by hemocytometry under 10× magnification. Day 7 sub-cultures were used throughout the experiment.
(§3) Herbicide solutions were delivered into each treatment plate using a Perkin Elmer Janus liquid handling system. Each well of the black 96-well plates (Perkin Elmer) received 100 µl herbicide solution as well as 100 µl of algal suspension (added via multi-channel pipette) and the solution was gently mixed. […] Each plate included a 3 µg l^−1 positive diuron control (n = 4) to confirm consistent sensitivities among the replicate algal subcultures. Treatments positions were randomised across the plates in duplicate[50],[61],[66]. Symbiodinium culture plates were incubated over a 12:12 h light:dark cycle at 26 °C and 60–70 µmol photons m^−2 s^−1 and Dunaliella sp. Plates incubated at: 26 °C and 130 µmol photons m^−2 s^−1. Microalgae were exposed for 24 h prior to PAM measurements. Samples were subjected to the 50 µmol photons m^−2 s^−1 actinic light for 1 min prior to measurement in the Maxi-IPAM (Actinic light = 1, ML = 10, ML frequency = 8, gain = 2 and damping = 1).
(§4) The model was constrained by applying a lower limit of 0% inhibition and all curves were tested for normality of the residuals and a replicate test was applied to assess the goodness of fit[36]. The probability that ICX values generated by the logistic curves were statistically different between parent and aged herbicide solutions was tested by applying the F test in Graph Pad Prism v6. ICXs were considered different when p < 0.05. Where inhibition data could not be fitted to logistic curves, one-way analysis of variance (ANOVA) was performed to identify treatments which caused significant (p < 0.05) inhibition comparison with control treatments (NCSS v9, Utah, USA). The larval prawn experimental data was arcsine square root transformed prior to statistical analysis.

Dunaliella sp. = test: as above; format: cell-based; settings: 24 h; for IC20: read-out: IC20 parent (inhibition of ∆F/Fm′ by 20%); for IC50: read-out: IC50 parent (inhibition of ∆F/Fm′ by 50%); for IC10 parent (inhibition of ∆F/Fm′ by 10%): Dunaliella sp., pure compound
Source text: as §1, §2, §3, §4

[2] = system: prawn (Penaeus monodon) larvae; test: Prawn larvae assay, metamorphosis of nauplii into protozoea (24 h static); format: in vivo; settings: 24 h; for Effect on prawn larval metamorphosis (in words): concentration range tested; for LOEC, prawn larval metamorphosis / NOEC, prawn larval metamorphosis: vs solvent control, ANOVA p < 0.05, aged solutions as concentration of parent herbicide
Protocol: The giant tiger prawn (Penaeus monodon) can be found throughout the tropical Indo-Pacific region and can be obtained from aquaculture facilities and has a well-described life cycle. The aim of the larval prawn assay was to determine whether the herbicides and transformation products inhibit early naupliar development. Prawn eggs hatch into their first larval stage (nauplii), typically 12–15 h after spawning. During development the nauplii are lecithotrophic, and over the course of the next 36 h, nauplii pass through 6 sub-stages before metamorphosing into protozoae[67],[68].
Freshly hatched nauplii were harvested by light attraction over 30 min, and washed and aerated for 10 min with seawater, and transported to AIMS in Townsville, Queensland. […] The toxicity assays were performed in incubator shakers (set to 30 °C) under very low light and with gentle shaking to prevent individuals adhering to the side of experimental containers.
The larval stock was gently concentrated via reverse-gravity filtration to a higher density before dispensing 8–10 individuals per 20 ml glass scintillation vials. Additional positive control treatments in the form of 4 concentrations of copper II chloride solution (2 to 900 µg l^−1 Cu), were included for test validation. The static assay was terminated after 24 h and 10% seawater formalin was added as a preservative for later microscopy. Metamorphosis was considered successful when nauplii had developed into protozoea.
as §4

[3] = day 330, seawater with sediment, outdoor tanks

## CCNc1nc(NC(C)C)[nH]c(=O)n1 [Atrazine hydroxy, hydroxy atrazine]
[1]; day 330
  Transformation product concentration: 30 µg/L

## hexazinone oxy
[1]; day 330
  Transformation product concentration: 26 µg/L

## CCNc1nc(Cl)nc(NCC)n1 [Simazine]
Symbiodinium sp.
  IC20: 0.034 µg/mL (≈ 0.169 µM)
  IC50: 0.084 µg/mL (≈ 0.417 µM)
  IC10 parent (inhibition of ∆F/Fm′ by 10%): 21 (19–23) µg l^−1
Dunaliella sp.
  IC20: 0.017 µg/mL (≈ 0.0843 µM)
  IC50: 0.087 µg/mL (≈ 0.431 µM)
[1]; [3]
  % degradation: 63%
  Parent herbicide concentration: 384 µg/L

## CSc1nc(N)nc(NC(C)C)n1 [Ametryn desethyl, ametryn desethyl]
[1]; day 330
  Transformation product concentration: 23 µg/L

## CCNc1nc(NC(C)C)[nH]c(=O)n1 [Ametryn hydroxy, hydroxy ametryn]
[1]; day 330
  Transformation product concentration: 188 µg/L

## CCNc1nc(NC(C)C)nc(SC)n1 [Ametryn]
Symbiodinium sp.
  IC20: 0.00082 µg/mL (≈ 0.00361 µM)
  IC50: 0.0022 µg/mL (≈ 0.00968 µM)
  IC10 parent (inhibition of ∆F/Fm′ by 10%): 0.47 (0.43–0.51) µg l^−1
Dunaliella sp.
  IC20: 0.00123 µg/mL (≈ 0.00541 µM)
  IC50: 0.0034 µg/mL (≈ 0.015 µM)
  IC10 parent (inhibition of ∆F/Fm′ by 10%): 0.70 (0.65–0.74) µg l^−1
[2]
  Effect on prawn larval metamorphosis (in words): did not affect metamorphosis
  LOEC, prawn larval metamorphosis: >517 µg/L
  NOEC, prawn larval metamorphosis: 517 µg/L
[1]; 330 d
  % degradation: 56%
[1]; [3]
  Parent herbicide concentration: 189 µg/L

## CCNc1nc(Cl)nc(NC(C)C)n1 [Atrazine]
Symbiodinium sp.
  IC20: 0.014 µg/mL (≈ 0.0649 µM)
  IC50: 0.0345 µg/mL (≈ 0.16 µM)
  IC10 parent (inhibition of ∆F/Fm′ by 10%): 8.6 (8.0–9.3) µg l^−1
Dunaliella sp.
  IC20: 0.018 µg/mL (≈ 0.0835 µM)
  IC50: 0.035 µg/mL (≈ 0.162 µM)
  IC10 parent (inhibition of ∆F/Fm′ by 10%): 12 (11–14) µg l^−1
[2]
  LOEC, prawn larval metamorphosis: 899 µg/L
  NOEC, prawn larval metamorphosis: 197 µg/L
[1]; [3]
  % degradation: 64%
  Parent herbicide concentration: 278 µg/L

## CCNc1nc(N)nc(SC)n1 [Ametryn desisopropyl, ametryn desisopropyl]
[1]; day 330
  Transformation product concentration: BDL

## CN(C)c1nc(=O)n(C2CCCCC2)c(=O)n1C [Hexazinone]
Symbiodinium sp.
  IC20: 0.012 µg/mL (≈ 0.0476 µM)
  IC50: 0.0457 µg/mL (≈ 0.181 µM)
  IC10 parent (inhibition of ∆F/Fm′ by 10%): 5.3 (4.5–6.7) µg l^−1
Dunaliella sp.
  IC20: 0.01 µg/mL (≈ 0.0396 µM)
  IC50: 0.038 µg/mL (≈ 0.151 µM)
[2]
  LOEC, prawn larval metamorphosis: 1026 µg/L
  NOEC, prawn larval metamorphosis: 242 µg/L
[1]; 330 d
  % degradation: 58%
[1]; [3]
  Parent herbicide concentration: 366 µg/L

## NC(=O)Nc1ccc(Cl)c(Cl)c1 [DCPU, 3,4-dichlorophenylurea]
[1]; day 330
  Transformation product concentration: 85 µg/L

## [Cl][Cu][Cl] [Copper reference, copper II chloride, reference compound]
[2]
  LOEC, prawn larval metamorphosis: 91 µg/L
  NOEC, prawn larval metamorphosis: 11 µg/L

## CNC(=O)Nc1ccc(Cl)c(Cl)c1 [DCPMU, 3-(3,4-dichlorophenyl)-1-methylurea]
[1]; day 330
  Transformation product concentration: 236 µg/L

## CCNc1nc(O)nc(NCC)n1 [Simazine hydroxy, hydroxy simazine]
[1]; day 330
  Transformation product concentration: 45 µg/L

## simazine amine
[1]; day 330
  Transformation product concentration: 31 µg/L

## CN(C)C(=O)Nc1ccc(Cl)c(Cl)c1 [Diuron]
Symbiodinium sp.
  IC20: 0.00068 µg/mL (≈ 0.00292 µM)
  IC50: 0.0014 µg/mL (≈ 0.00601 µM)
  IC10 parent (inhibition of ∆F/Fm′ by 10%): 0.64 (0.57–0.71) µg l^−1
Dunaliella sp.
  IC20: 0.00174 µg/mL (≈ 0.00746 µM)
  IC50: 0.0044 µg/mL (≈ 0.0189 µM)
  IC10 parent (inhibition of ∆F/Fm′ by 10%): 1.02 (0.94–1.10) µg l^−1
[2]
  Effect on prawn larval metamorphosis (in words): did not affect metamorphosis
  LOEC, prawn larval metamorphosis: >874 µg/L
  NOEC, prawn larval metamorphosis: 874 µg/L
[2]; listed as diuron
  LOEC, prawn larval metamorphosis: > 874 µg/L
[1]; [3]
  % degradation: 93%
  Parent herbicide concentration: 71 µg/L

## hexazinone hydroxy
[1]; day 330
  Transformation product concentration: 5.4 µg/L

## CNc1nc(=O)n(C2CCCCC2)c(=O)n1C [Hexazinone desmethyl, hexazinone desmethyl]
[1]; day 330
  Transformation product concentration: 91 µg/L

## CCNc1nc(N)nc(Cl)n1 [Desethyl simazine, desethyl simazine]
[1]; day 330
  Transformation product concentration: 79 µg/L
